These results are taken from patent US20210253718A1, “FRIZZLED5 PROTEIN-BINDING AGENTS” (Modmab Therapeutics Corporation, priority 2016, published 2021).

Common to all, as to format: cell-based, human
One assay has as its system HPAF-II cells. Briefly: Crystal violet staining proliferation (clonogenic growth) assay. Conditions: 100 nM LGK974. As for the experimental part:
Crystal Violet Staining Proliferation Assay: HPAFII Cas9 cells were transduced with lentivirus generated with the indicated pLCKO plasmid as described above. 24 hours after infection cells were treated with puromycin. After 48 hours of selection, cells were PBS washed extensively, dissociated and counted. 2000 cells per well were re-seeded in 24-well format in media without puromycin. 24 hours post seeding, indicated wells were treated with DMSO control or 100 nM LGK974 (Cayman Chemical #14072) (note that these wells were from the LacZ gRNA population). Medium was renewed every 3-4 days and cells were fixed, 10 days post plating, using 100% ice-cold methanol. After fixation cells were stained with 0.5% crystal violet, 25% methanol solution for 20 minutes at room temperature, after which staining solution was removed and plates were washed several times in dH2O.
To validate the screen results HPAF-II cells were first infected with lentivirus coding for various gRNAs, transduced cells were selected for 48 hours and plated in clonogenic growth assays. […] In contrast, the growth of PANC-1 and BxPC-3 cell lines, which are wild-type for RNF43, was not inhibited by gRNAs targeting FZD5, FZD7 or CTNNB1 (FIG. 4C and FIG. 5).

Another assay relates to PaTu-8988S cells. Description: Cell viability assay (Alamar Blue) in PDAC cell lines, LGK974 comparator. (Alamar Blue is a resazurin reagent that responds to reducing activity.)
The next assay relates to ASPC-1 cells. The description is as above.
A further assay concerns MUC5AC. Briefly: RT-qPCR of differentiation induced gene MUC5AC. Conditions: RNF43-mutant PDAC cells. On the procedure:
Reverse transcription and quantitative real-time PCR: After indicated treatments, cells were lysed in Tri-reagent (BioShop Canada #TSS120) and RNA extracted using the manufacturer's protocol. RNA concentration was quantified with Nanodrop1000 (Thermo Scientific) and 2 micrograms of RNA per sample was DNase I treated (ThermoFisher #AM2222). DNase treated RNA was used to make cDNA with High-Capacity cDNA Reverse Transcription Kit (ThermoFisher #4368813). Real-time PCR was performed using Power SYBR Green Master Mix on the 7900HT Fast Real-Time PCR system. Primer pairs are listed below. Analysis was done using the comparative cycle threshold (CT) method (Bookout et al., 2006) with all samples normalized to PPIB (cyclophilin B) expression. To validate the screen results HPAF-II cells were first infected with lentivirus coding for various gRNAs, transduced cells were selected for 48 hours and plated in clonogenic growth assays. […] In contrast, the growth of PANC-1 and BxPC-3 cell lines, which are wild-type for RNF43, was not inhibited by gRNAs targeting FZD5, FZD7 or CTNNB1 (FIG. 4C and FIG. 5).

For `Cc1cc(-c2ncc(CC(=O)Nc3ccc(-c4cnccn4)cn3)cc2C)ccn1` [LGK974], the “growth in clonogenic growth assay” value in the assay with HPAF-II cells is on record as “robust growth inhibition”. The “growth (cell viability)” value in the assay with PaTu-8988S cells and in the assay with ASPC-1 cells was “inhibited the growth” throughout. The “expression of the differentiation marker MUC5AC” value in the assay with MUC5AC is “increased expression”.
